Values after ≈ are worked out from the molar mass of the structure shown.
How the values were obtained:
Assay type in all cases: functional
Staphylococcus aureus [1] = test: Antibacterial activity against Staphylococcus aureus ATCC25923 assessed as inhibition of bacterial growth incubated for 24 hrs by broth microdilution method
Staphylococcus aureus [2] = test: Antibacterial activity against methicillin resistant Staphylococcus aureus ATCC33591 assessed as inhibition of bacterial growth incubated for 24 hrs by broth microdilution method
Enterococcus faecium = test: Antibacterial activity against vancomycin-resistant Enterococcus faecium ATCC 700221 assessed as inhibition of bacterial growth incubated for 24 hrs by broth microdilution method
Escherichia coli = test: Antibacterial activity against Escherichia coli ATCC25922 assessed as inhibition of bacterial growth incubated for 24 hrs by broth microdilution method
Ralstonia solanacearum = test: Antibacterial activity against Ralstonia solanacearum assessed as inhibition of bacterial growth incubated for 24 hrs by broth microdilution method
[3] = Antibacterial activity against Pseudomonas syringae pv. actinidiae assessed as inhibition of bacterial growth incubated for 24 hrs by broth microdilution method
Staphylococcus aureus [4] = test: Bactericidal activity against Staphylococcus aureus ATCC25923 assessed as inhibition of bacterial growth incubated for 24 hrs by resazurin dye based analysis
Staphylococcus aureus [5] = test: Bactericidal activity against methicillin resistant Staphylococcus aureus ATCC33591 assessed as inhibition of bacterial growth incubated for 24 hrs by resazurin dye based analysis
Staphylococcus aureus [6] = test: Ratio of MBC to MIC for Staphylococcus aureus ATCC25923

| SMILES | MIC (Staphylococcus aureus [1]) [µg/mL] | MIC (Staphylococcus aureus [2]) [µg/mL] | MIC (Enterococcus faecium) [µg/mL] | MIC (Escherichia coli) [µg/mL] | MIC (Ralstonia solanacearum) [µg/mL] | MIC [3] [µg/mL] | MBC (Staphylococcus aureus [4]) [µg/mL] | MBC (Staphylococcus aureus [5]) [µg/mL] | Ratio (Staphylococcus aureus [6]) |
| --- | --- | --- | --- | --- | --- | --- | --- | --- | --- |
| O=C(Nc1ccc(C2NCCc3c2[nH]c2ccccc32)cc1)c1cc(C(F)(F)F)cc(C(F)(F)F)c1 (stereo not drawn) | 16 (≈ 31.8 µM) | 16 (≈ 31.8 µM) | > 128 | 128 (≈ 254 µM) | 128 (≈ 254 µM) | 64 (≈ 127 µM) | – | – | – |
| Cc1ccccc1C(=O)Nc1ccc(C2c3[nH]c4ccccc4c3CCN2C)cc1 (stereo not drawn) | 64 (≈ 162 µM) | 32 (≈ 80.9 µM) | > 128 | 64 (≈ 162 µM) | 128 (≈ 324 µM) | 64 (≈ 162 µM) | – | – | – |
| O=C(Nc1ccc(C2NCCc3c2[nH]c2ccccc32)cc1)c1ccccc1F (stereo not drawn) | 32 (≈ 83 µM) | 32 (≈ 83 µM) | > 128 | 64 (≈ 166 µM) | 128 (≈ 332 µM) | 64 (≈ 166 µM) | – | – | – |
| CN1CCc2c([nH]c3ccccc23)C1c1ccc(NC(=O)c2cccc(F)c2)cc1 (stereo not drawn) | 32 (≈ 80.1 µM) | 4 (≈ 10 µM) | > 128 | 16 (≈ 40.1 µM) | 16 (≈ 40.1 µM) | 16 (≈ 40.1 µM) | – | – | – |
| CN1CCc2c([nH]c3ccccc23)C1c1ccc(NC(=O)c2cccc([N+](=O)[O-])c2)cc1 (stereo not drawn) | 64 (≈ 150 µM) | 64 (≈ 150 µM) | > 128 | 64 (≈ 150 µM) | 64 (≈ 150 µM) | > 128 | – | – | – |
| CN1CCc2c([nH]c3ccccc23)C1c1ccc(NC(=O)c2ccc(Cl)cc2)cc1 (stereo not drawn) | 8 (≈ 19.2 µM) | 16 (≈ 38.5 µM) | > 128 | 32 (≈ 76.9 µM) | 32 (≈ 76.9 µM) | 64 (≈ 154 µM) | – | – | – |
| COC(=O)c1ccc(C(=O)Nc2ccc(C3NCCc4c3[nH]c3ccccc43)cc2)cc1 (stereo not drawn) | 16 (≈ 37.6 µM) | 32 (≈ 75.2 µM) | > 128 | 16 (≈ 37.6 µM) | 16 (≈ 37.6 µM) | 16 (≈ 37.6 µM) | – | – | – |
| CN1CCc2c([nH]c3ccccc23)C1c1ccc(NC(=O)c2ccccc2)cc1 (stereo not drawn) | 128 (≈ 336 µM) | 128 (≈ 336 µM) | > 128 | 128 (≈ 336 µM) | 128 (≈ 336 µM) | 64 (≈ 168 µM) | – | – | – |
| O=C(Nc1ccc(C2NCCc3c2[nH]c2ccccc32)cc1)c1ccc(F)c(C(F)(F)F)c1 (stereo not drawn) | 4 (≈ 8.82 µM) | 8 (≈ 17.6 µM) | > 128 | 8 (≈ 17.6 µM) | 16 (≈ 35.3 µM) | 32 (≈ 70.6 µM) | – | – | – |
| O=C(Nc1ccc(C2NCCc3c2[nH]c2ccccc32)cc1)c1ccc(Br)cc1 (stereo not drawn) | 32 (≈ 71.7 µM) | 32 (≈ 71.7 µM) | > 128 | 8 (≈ 17.9 µM) | 32 (≈ 71.7 µM) | 16 (≈ 35.8 µM) | – | – | – |
| Cc1cccc(C(=O)Nc2ccc(C3NCCc4c3[nH]c3ccccc43)cc2)c1 (stereo not drawn) | 32 (≈ 83.9 µM) | 64 (≈ 168 µM) | > 128 | 32 (≈ 83.9 µM) | 32 (≈ 83.9 µM) | 32 (≈ 83.9 µM) | – | – | – |
| Cc1ccccc1C(=O)Nc1ccc(C2NCCc3c2[nH]c2ccccc32)cc1 (stereo not drawn) | 32 (≈ 83.9 µM) | 32 (≈ 83.9 µM) | > 128 | 64 (≈ 168 µM) | 128 (≈ 336 µM) | 128 (≈ 336 µM) | – | – | – |
| Cc1cccc(C(=O)Nc2ccc(C3c4[nH]c5ccccc5c4CCN3C)cc2)c1 (stereo not drawn) | 32 (≈ 80.9 µM) | 64 (≈ 162 µM) | > 128 | 64 (≈ 162 µM) | 32 (≈ 80.9 µM) | 32 (≈ 80.9 µM) | – | – | – |
| O=C(Nc1ccc(C2NCCc3c2[nH]c2ccccc32)cc1)c1ccc(Cl)cc1 (stereo not drawn) | 4 (≈ 9.95 µM) | 8 (≈ 19.9 µM) | > 128 | 16 (≈ 39.8 µM) | 8 (≈ 19.9 µM) | 128 (≈ 318 µM) | 32 (≈ 79.6 µM) | 16 (≈ 39.8 µM) | 1 |
| O=C(Nc1ccc(C2NCCc3c2[nH]c2ccccc32)cc1)c1cccc(F)c1 (stereo not drawn) | 16 (≈ 41.5 µM) | 4 (≈ 10.4 µM) | > 128 | 16 (≈ 41.5 µM) | 8 (≈ 20.8 µM) | 32 (≈ 83 µM) | – | – | – |

— ChEMBL document CHEMBL5576067, “Synthesis and biological evaluation of novel 1,2,3,4-tetrahydro-β-carboline derivatives as potential antibacterial agents” (Bioorg Med Chem Lett, 2024)
